Reference: article PMC6407917, “Identification of GSK3186899/DDD853651 as a Preclinical Development Candidate for the Treatment of Visceral Leishmaniasis” (Journal of Medicinal Chemistry, 2018)
pIC50: −log10 of the molar value.

Legend:
Assay in all cases: biochemical
Set-up in all cases: species or system HEK293/K-562/placenta mixed human extract; Kinobeads chemoproteomic competition binding, quantified by TMT LC-MS/MS, dose response up to 20 uM
[1] = target: TNK2 (Homo sapiens, UniProt Q07912)
[2] = target: NUAK2 (Homo sapiens, UniProt Q9H093)
[3] = target: SLK (Homo sapiens, UniProt Q9H2G2)
[4] = target: SERPINB2 (Homo sapiens, UniProt P05120)
[5] = target: MINK1 (Homo sapiens, UniProt Q8N4C8)
Sequence of MINK1 (Q8N4C8 whole entry): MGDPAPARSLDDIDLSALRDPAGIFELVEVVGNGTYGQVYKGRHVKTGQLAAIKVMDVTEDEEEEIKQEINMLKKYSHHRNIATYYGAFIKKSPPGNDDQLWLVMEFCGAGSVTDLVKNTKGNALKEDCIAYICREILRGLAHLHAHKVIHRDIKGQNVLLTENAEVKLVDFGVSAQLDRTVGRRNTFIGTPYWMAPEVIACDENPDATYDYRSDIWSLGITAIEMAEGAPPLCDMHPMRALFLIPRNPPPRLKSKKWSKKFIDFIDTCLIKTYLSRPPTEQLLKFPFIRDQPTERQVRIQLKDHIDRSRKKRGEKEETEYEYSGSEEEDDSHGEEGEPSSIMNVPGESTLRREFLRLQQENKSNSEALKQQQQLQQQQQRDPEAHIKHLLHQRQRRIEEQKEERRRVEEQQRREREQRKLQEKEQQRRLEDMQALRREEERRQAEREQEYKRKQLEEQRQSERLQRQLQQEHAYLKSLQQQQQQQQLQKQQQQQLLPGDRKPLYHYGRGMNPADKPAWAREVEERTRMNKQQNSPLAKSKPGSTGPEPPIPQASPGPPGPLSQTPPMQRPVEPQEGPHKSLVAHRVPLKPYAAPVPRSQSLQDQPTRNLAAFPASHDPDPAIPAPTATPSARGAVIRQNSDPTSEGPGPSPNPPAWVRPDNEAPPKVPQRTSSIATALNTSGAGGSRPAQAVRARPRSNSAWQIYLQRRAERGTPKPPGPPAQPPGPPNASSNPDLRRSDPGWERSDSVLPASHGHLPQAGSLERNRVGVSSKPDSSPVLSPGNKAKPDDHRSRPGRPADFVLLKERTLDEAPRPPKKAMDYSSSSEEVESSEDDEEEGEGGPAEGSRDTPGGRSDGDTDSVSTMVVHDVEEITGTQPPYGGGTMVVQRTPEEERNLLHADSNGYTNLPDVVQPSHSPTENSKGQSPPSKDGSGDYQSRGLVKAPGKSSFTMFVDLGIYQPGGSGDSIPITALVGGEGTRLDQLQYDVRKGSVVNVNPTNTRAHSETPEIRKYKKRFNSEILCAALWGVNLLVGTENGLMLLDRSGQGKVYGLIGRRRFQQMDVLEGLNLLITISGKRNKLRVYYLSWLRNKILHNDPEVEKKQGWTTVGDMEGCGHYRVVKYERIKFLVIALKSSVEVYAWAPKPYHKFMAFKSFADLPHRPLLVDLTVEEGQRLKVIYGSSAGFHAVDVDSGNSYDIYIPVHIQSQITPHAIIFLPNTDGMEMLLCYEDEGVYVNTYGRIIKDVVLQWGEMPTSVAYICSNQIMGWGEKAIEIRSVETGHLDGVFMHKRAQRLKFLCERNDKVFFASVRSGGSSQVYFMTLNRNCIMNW

[6] = target: HCK (Homo sapiens, UniProt P08631)
Sequence of HCK (P08631 whole entry): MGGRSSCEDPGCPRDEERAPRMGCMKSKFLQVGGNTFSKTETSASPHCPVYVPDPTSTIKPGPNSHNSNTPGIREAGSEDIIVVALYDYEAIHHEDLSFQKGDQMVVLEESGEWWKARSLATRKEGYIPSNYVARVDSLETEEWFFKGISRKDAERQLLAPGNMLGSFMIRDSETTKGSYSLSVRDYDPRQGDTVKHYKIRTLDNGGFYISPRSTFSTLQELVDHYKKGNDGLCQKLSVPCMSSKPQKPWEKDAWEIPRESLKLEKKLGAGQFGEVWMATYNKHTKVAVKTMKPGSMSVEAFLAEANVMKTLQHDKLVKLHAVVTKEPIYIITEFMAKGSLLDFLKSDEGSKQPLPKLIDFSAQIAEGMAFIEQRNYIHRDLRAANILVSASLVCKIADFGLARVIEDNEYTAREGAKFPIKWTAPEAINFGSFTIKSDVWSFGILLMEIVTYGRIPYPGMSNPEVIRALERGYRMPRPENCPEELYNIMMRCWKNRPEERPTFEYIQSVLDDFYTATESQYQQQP

[7] = target: EPHB3 (Homo sapiens, UniProt P54753)
[8] = target: PAK4 (Homo sapiens, UniProt O96013)
Sequence of PAK4 (O96013 whole entry): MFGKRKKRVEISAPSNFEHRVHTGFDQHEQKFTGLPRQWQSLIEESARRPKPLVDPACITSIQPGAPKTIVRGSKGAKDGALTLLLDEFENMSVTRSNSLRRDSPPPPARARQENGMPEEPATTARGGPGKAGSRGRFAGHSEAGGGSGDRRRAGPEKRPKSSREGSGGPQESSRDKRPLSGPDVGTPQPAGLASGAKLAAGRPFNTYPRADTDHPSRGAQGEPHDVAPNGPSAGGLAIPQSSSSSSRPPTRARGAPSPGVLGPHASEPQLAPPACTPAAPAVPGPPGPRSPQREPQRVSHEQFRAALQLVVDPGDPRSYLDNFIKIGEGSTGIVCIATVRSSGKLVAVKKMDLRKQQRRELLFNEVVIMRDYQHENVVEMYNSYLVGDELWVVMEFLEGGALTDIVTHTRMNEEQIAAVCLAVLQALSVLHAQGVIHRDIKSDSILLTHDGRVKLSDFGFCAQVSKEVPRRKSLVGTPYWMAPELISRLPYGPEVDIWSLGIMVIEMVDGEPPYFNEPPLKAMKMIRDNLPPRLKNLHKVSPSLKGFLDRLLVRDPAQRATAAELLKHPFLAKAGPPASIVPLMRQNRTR

[9] = target: CIT (Homo sapiens, UniProt O14578)
[10] = target: MAP3K7 (Homo sapiens, UniProt O43318)
[11] = target: ACVR1 (Homo sapiens, UniProt Q04771)
[12] = target: DDR1 (Homo sapiens, UniProt Q08345)
[13] = target: PRKCQ (Homo sapiens, UniProt Q04759)
Sequence of PRKCQ (Q04759 whole entry): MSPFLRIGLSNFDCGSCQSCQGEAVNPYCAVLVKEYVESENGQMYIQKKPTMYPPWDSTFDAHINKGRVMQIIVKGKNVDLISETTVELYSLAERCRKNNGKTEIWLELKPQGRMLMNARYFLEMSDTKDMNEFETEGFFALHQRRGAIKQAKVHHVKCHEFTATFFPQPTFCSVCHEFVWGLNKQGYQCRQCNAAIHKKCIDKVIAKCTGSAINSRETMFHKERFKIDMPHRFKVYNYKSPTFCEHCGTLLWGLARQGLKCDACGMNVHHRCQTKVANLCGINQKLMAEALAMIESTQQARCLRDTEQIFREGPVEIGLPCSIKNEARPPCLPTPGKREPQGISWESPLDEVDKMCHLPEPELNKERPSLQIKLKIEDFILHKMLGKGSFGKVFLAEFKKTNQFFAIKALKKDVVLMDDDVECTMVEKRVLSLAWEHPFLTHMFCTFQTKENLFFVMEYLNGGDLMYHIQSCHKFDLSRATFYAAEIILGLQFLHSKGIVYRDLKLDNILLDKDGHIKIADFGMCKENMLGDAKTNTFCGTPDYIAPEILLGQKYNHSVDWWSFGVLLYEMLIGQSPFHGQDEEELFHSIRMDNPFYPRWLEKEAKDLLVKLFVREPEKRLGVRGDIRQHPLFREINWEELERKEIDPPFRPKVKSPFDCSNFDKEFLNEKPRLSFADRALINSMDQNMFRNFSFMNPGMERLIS

[14] = target: EPHA7 (Homo sapiens, UniProt Q15375)
[15] = target: TBK1 (Homo sapiens, UniProt Q9UHD2)
[16] = target: WNK4 (Homo sapiens, UniProt Q96J92)
[17] = target: MYLK (Homo sapiens, UniProt Q15746)
Sequence of MYLK (Q15746 whole entry): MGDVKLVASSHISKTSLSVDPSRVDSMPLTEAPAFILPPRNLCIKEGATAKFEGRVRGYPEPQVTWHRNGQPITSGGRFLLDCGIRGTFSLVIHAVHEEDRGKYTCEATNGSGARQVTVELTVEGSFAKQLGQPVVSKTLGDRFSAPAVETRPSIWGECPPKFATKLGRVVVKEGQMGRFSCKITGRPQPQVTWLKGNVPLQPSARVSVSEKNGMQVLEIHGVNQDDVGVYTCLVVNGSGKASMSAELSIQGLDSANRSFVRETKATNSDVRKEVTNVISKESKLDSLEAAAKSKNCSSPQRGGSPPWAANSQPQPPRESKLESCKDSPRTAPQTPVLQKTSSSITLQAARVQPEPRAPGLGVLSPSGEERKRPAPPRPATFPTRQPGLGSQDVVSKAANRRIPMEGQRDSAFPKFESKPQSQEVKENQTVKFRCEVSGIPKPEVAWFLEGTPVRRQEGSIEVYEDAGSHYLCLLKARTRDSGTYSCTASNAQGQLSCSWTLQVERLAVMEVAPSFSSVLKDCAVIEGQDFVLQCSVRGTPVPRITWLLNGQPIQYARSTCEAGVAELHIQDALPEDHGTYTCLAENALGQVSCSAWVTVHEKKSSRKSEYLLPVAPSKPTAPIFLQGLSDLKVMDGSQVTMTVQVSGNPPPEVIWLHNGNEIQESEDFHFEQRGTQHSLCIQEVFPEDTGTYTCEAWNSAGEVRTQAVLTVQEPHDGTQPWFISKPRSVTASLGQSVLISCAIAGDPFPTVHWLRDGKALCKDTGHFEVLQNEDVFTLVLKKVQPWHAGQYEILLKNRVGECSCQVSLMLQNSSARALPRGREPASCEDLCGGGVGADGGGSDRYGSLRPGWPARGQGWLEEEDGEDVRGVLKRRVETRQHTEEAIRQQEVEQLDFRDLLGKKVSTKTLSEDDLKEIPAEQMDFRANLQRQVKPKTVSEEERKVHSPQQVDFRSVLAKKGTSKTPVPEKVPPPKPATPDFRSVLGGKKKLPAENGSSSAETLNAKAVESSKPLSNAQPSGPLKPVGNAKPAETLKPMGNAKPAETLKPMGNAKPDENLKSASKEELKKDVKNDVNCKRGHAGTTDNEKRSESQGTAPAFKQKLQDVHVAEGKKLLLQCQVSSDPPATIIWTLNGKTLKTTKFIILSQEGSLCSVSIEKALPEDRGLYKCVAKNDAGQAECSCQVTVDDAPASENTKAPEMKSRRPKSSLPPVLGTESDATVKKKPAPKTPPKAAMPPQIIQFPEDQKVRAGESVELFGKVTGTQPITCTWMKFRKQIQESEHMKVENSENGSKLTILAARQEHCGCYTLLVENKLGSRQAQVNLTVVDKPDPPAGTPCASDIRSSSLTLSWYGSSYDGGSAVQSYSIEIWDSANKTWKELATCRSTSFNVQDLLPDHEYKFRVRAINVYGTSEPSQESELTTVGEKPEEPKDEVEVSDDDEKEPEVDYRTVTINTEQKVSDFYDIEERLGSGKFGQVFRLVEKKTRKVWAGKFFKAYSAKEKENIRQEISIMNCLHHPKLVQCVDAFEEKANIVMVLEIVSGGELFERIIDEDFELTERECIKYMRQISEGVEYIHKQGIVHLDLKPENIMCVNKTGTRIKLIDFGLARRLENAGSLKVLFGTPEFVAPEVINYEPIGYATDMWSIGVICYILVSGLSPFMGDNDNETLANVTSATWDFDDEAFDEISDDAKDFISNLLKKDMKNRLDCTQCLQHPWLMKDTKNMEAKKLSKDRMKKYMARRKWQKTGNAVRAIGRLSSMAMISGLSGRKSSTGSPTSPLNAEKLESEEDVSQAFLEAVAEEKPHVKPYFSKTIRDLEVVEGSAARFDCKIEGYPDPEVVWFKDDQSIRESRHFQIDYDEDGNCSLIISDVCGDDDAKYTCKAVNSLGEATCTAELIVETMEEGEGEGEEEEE

[18] = target: WEE1 (Homo sapiens, UniProt P30291)
[19] = target: MELK (Homo sapiens, UniProt Q14680)
[20] = target: MAP3K9 (Homo sapiens, UniProt P80192)
[21] = target: PRKX (Homo sapiens, UniProt P51817)

Measured: pIC50

COc1nc(N[C@H]2CC[C@H](NS(=O)(=O)CC(C)C)CC2)nc2[nH]nc(N3CCOC[C@H]3C)c12 [compound 39, N-(trans-4-((4-Methoxy-3-((R)-3-methylmorpholino)-1H-pyrazolo[3,4-d]pyrimidin-6-yl)amino)cyclohexyl)-2-methylpropane-1-sulfonamide]
≤ 4.70: all assays above
